Results reported in patent US20250017937A1, “MGLU2/3 ANTAGONISTS FOR THE TREATMENT OF INTELLECTUAL DISABILITIES” (Hoffmann-La Roche Inc., priority 2014, published 2025).

System: Shank3 KO mice
Experiment: Water maze cognition experiment (acquisition and reversal learning) in Shank3 KO mice
Type: in vivo, mouse
Details: female SHANK3-KO mice
From the text: Example 1: Cognition experiment in Shank3 KO mice an animal model of ASD with reported impairment in cognition
11-12 female wild-type and Shank3 KO mice on C57B16/J background were from F. Hoffmann La Roche breeding facilities, and were 10 weeks old at the beginning of the study. 20male Nlgn3 knockout rats and 20 littermate wild-type controls (background: Sprague Dawley) were from F. Hoffmann La Roche breeding facilities. All rats and mice were group-housed in holding rooms at controlled temperature (20-22° C.), humidity (55-65%) and 12-h light/dark cycle (lights on 06:00 h). All animals were allowed ad libitum access to food and water. The experimental procedures used in the present investigation received prior approval from the City of Basel Cantonal Animal Protection Committee based on adherence to federal and local regulations.
II-a were synthesized at F. Hoffmann-La Roche Ltd. according to procedures known in the art^12. Both compounds were prepared as a suspension in 0.3% Tween 80 v/v 0.9% saline and administered per os by gavage using an administration volume of 5 ml/kg (rat) or 10 ml/kg (mouse). […] All doses reported in this study are expressed as free base equivalents.
On days 1-7, II-a was administered once daily per os with 10 mg/kg (WT: n=11: KO: n=12) or vehicle (WT: n=12; KO: n=12), 3 h prior to testing from day 1 of water maze until the last day of testing. The dose of II-a was reduced to 7 mg/kg on days 8-16. Water maze was conducted on days 1-12 of treatment, with 2 days for “shaping” prior to the start of drug treatment. The grooming/digging test was conducted on days 15-16. […]
Data analysis: The mean latency, path length, and swim speed were assessed during acquisition and reversal learning. In the probe trial, the percent time spent searching for the previous platform in each quadrant (left, platform, right, and opposite), and the number of platform crossings were measured.

Cc1cc(-c2ccc(C(F)(F)F)cc2)cc(-c2cccc(-c3cccc(S(N)(=O)=O)c3)n2)n1 [II-a]
latency to reach platform (mean latency during acquisition and reversal learning) (FIGS. 1 and 2, C57BL/6j background, 10 weeks old, II-a 10 mg/kg po chronic vs Veh): some improvement in latency to reach platform in KO mice only
path length during acquisition and reversal learning (FIGS. 1 and 2, II-a 10 mg/kg po chronic vs Veh): significant block 7
memory impairment in the KO-Veh compared to WT-Veh (water maze) (FIGS. 3 and 4, II-a 10 mg/kg po chronic, repeated measures analysis of variance): improvement
